# Assay results published in patent US20210261621A1, “Preparation of Dilipid Polymixins and Use Thereof as Antimicrobial Adjuvants” (priority 2018, published 2021).
# Where two headings read alike, the source gives them in different places. Positions of bridges follow the written chain, without caps; N, C: chain ends. Non-standard residues stand in square brackets, D forms with d. Residues, ends and D or L forms follow the SMILES beside them. Dab = NCC[C@H](N)C(=O)O
# Experiments:
# pig erythrocytes = settings: red cells of pig, 1 h, 512
# P. aeruginosa PAO1 [1] = system: P. aeruginosa PAO1; set-up: MICDrug / MICDrug in combo / MIC of adjuvant in combo: unit not given beside the values
# Procedure: The potential of the dilipid polymyxins to serve as an adjuvant in combination with other antibiotics was evaluated against P. aeruginosa PAO1 strain (Tables 4 and 7-12). […] Checkerboard assays were performed with the dilipid polymyxins in combination with twenty-one clinically-used antibiotics. The panel included representatives from the β-lactam, carbapenem, tetracycline, aminoglycoside and fluoroquinolone antibiotic families. Other agents that are used to treat Gram-negative bacterial infection such as fosfomycin, trimethoprim and chloramphenicol were also included. […] Fractional inhibitory concentration (FIC) index was calculated for each combination to measure potential synergism between the two agents. FIC was obtained by dividing the MIC of antibiotic/adjuvant in combination by the MIC of antibiotic/adjuvant alone, while FIC index was calculated by the summation of FIC indices for the antibiotic and adjuvant. An FIC index of ≤0.5, 0.5<x≤4, or >4 denotes for synergistic, additive or antagonistic interaction, respectively. Initially, we assessed the adjuvant properties of PMBN against the panel of 21 antibiotics.
# The assay was performed on 96-well plates as previously described. Briefly, the antibiotic at study was 2-fold serially diluted along the x-axis, while the adjuvant was 2-fold serially diluted along the y-axis to create a matrix in which each well consists of a combination of both at different concentrations. Overnight grown bacterial cultures were diluted in saline to 0.5 McFarland turbidity, followed by 1:50 dilution in MHB and inoculation on each well to a final concentration of approximately 5×10^5 colony forming units/mL. Wells containing only MHB with or without bacterial cells were used as positive or negative control, respectively. […] The fractional inhibitory concentration (FIC) of the antibiotic was calculated via dividing the MIC of antibiotic in the presence of adjuvant by the MIC of antibiotic alone. Similarly, the FIC of adjuvant was calculated via dividing the MIC of adjuvant in the presence of antibiotic by the MIC of adjuvant alone. The FIC index was obtained by the summation of both FIC values. The FIC index was then interpreted as synergistic, additive, or antagonistic for values of ≤0.5, 0.5<x<4, or ≥4, respectively.
# P. aeruginosa PAO1 [2] = format: cell-based, Pseudomonas aeruginosa; settings: P. aeruginosa PAO1 (wild type)
# Source text: (§1) Bacterial strains were either obtained from the American Type Culture Collection (ATCC), Canadian National Intensive Care Unit (CAN-ICU) surveillance study or the Canadian Ward Surveillance (CANWARD) study. Strains from both CAN-ICU and CANWARD are isolates recovered from patients diagnosed with a presumed infectious disease that were admitted in a participating medical center across Canada. Efflux-deficient strain PAO200 (lacking MexAB-OprM efflux system) and PA0750 (lacking MexAB-OprM, MexCD-OprJ, MexEF-OprN, MexJK and MexXY efflux systems, and the outer membrane protein OpmH) were kindly gifted by Dr. Ayush Kumar (University of Manitoba).
# (§2) The in vitro antibacterial activity of the compounds studied were assessed by broth microdilution susceptibility testing following CLSI guidelines. Bacterial cultures were grown overnight prior to the assay. The overnight grown cultures were diluted in saline to 0.5 McFarland turbidity, followed by 1:50 dilution in Mueller-Hinton broth (MHB) for inoculation to a final concentration of approximately 5×10^5 colony forming units/mL. Testing was performed on 96-well plates where the tested compounds were 2-fold serially diluted in MHB and incubated with equal volumes of bacterial inoculum at 37° C. for 18 h. […] Wells containing MHB with or without bacterial cells were used as positive or negative control, respectively.
# P. aeruginosa PAO750 = settings: P. aeruginosa PAO750, efflux-deficient strain that lacks five pumps and OpmH
# Source text: (§3) To our curiosity, we explored whether efflux can affect the activity of polymyxins. It is widely accepted that polymyxins disrupt Gram-negative bacterial membranes that result to intracellular component leakage and bacterial cell death. However, for this to occur requires the agent to reach the periplasmic space to interact and disrupt the inner membrane. Active efflux may potentially expel polymyxins out of the periplasm, effectively reducing its periplasmic and intracellular concentrations. To study the effect of efflux on polymyxins in Gram-negative pathogens, we used P. aeruginosa as they inherently overexpress efflux systems such as MexAB-OprM, MexCD-OprJ and MexXY-OprM. Moreover, antibiotic substrates for these efflux systems are mostly characterized. We evaluated and compared the activity of the dilipid polymyxins, colistin and PMBN against wild-type PAO1 and two efflux-deficient P. aeruginosa isogenic mutants (Table 5). The strain PAO200 lacks the MexAB-OprM efflux system while strain PAO750 lacks five clinically-relevant pumps (MexAB-OprM, MexCD-OprJ, MexEF-OprN, MexJK and MexXY) and outer membrane protein OpmH.
# as §1, §2
# P. aeruginosa PAO200 = system: P. aeruginosa PAO200
# Source text: as §3, §1, §2
# [3] = healthy volunteers; single dose up to 800 mg or multiple dose up to 600 mg every 8 hours for 14 consecutive days; cited from earlier work
smiles,measurement,setting,value
"CC(C)C[C@@H]1NC(=O)[C@@H](Cc2ccccc2)NC(=O)[C@H](CCN)NC(=O)[C@@H](NC(=O)[C@H](CCN)NC(=O)[C@@H](N)[C@@H](C)O)CCNC(=O)[C@H]([C@@H](C)O)NC(=O)[C@H](CCN)NC(=O)[C@H](CCN)NC1=O [PMBN, polymyxin B nonapeptide, reference compound] (H-T[Dab][Dab][Dab][dF]L[Dab][Dab]T; lactam 3-C (inferred))",% Hemolysis at 512 μg/mL of polymyxin,pig erythrocytes,1.1 ± 0.1%
same,"MIC of adjuvant alone (MIC1, MIC2, MIC3, MIC4, MIC5, MICPMBN)","P. aeruginosa PAO1 [1]; adjuvant alone, one value per checkerboard, in µg/mL",128
same,Interpretation,P. aeruginosa PAO1 [1]; combination with Aztreonam,"Synergy (An FIC index of ≤0.5, 0.5<x≤4, or >4 denotes for synergistic, additive or antagonistic interaction, respectively)"
same,Interpretation,P. aeruginosa PAO1 [1]; combination with Ceftazidime,"Synergy (An FIC index of ≤0.5, 0.5<x≤4, or >4 denotes for synergistic, additive or antagonistic interaction, respectively)"
same,Interpretation,P. aeruginosa PAO1 [1]; combination with Chloramphenicol,"Synergy (An FIC index of ≤0.5, 0.5<x≤4, or >4 denotes for synergistic, additive or antagonistic interaction, respectively)"
same,Interpretation,P. aeruginosa PAO1 [1]; combination with Ciprofloxacin,"Synergy (An FIC index of ≤0.5, 0.5<x≤4, or >4 denotes for synergistic, additive or antagonistic interaction, respectively)"
same,Interpretation,P. aeruginosa PAO1 [1]; combination with Clindamycin,"Synergy (An FIC index of ≤0.5, 0.5<x≤4, or >4 denotes for synergistic, additive or antagonistic interaction, respectively)"
same,Interpretation,P. aeruginosa PAO1 [1]; combination with Doripenem,"Synergy (An FIC index of ≤0.5, 0.5<x≤4, or >4 denotes for synergistic, additive or antagonistic interaction, respectively)"
same,Interpretation,P. aeruginosa PAO1 [1]; combination with Doxycycline,"Synergy (An FIC index of ≤0.5, 0.5<x≤4, or >4 denotes for synergistic, additive or antagonistic interaction, respectively)"
same,Interpretation,P. aeruginosa PAO1 [1]; combination with Fosfomycin,"Synergy (An FIC index of ≤0.5, 0.5<x≤4, or >4 denotes for synergistic, additive or antagonistic interaction, respectively)"
same,Interpretation,P. aeruginosa PAO1 [1]; combination with Gentamicin,"Additive (An FIC index of ≤0.5, 0.5<x≤4, or >4 denotes for synergistic, additive or antagonistic interaction, respectively)"
same,Interpretation,P. aeruginosa PAO1 [1]; combination with Linezolid,"Synergy (An FIC index of ≤0.5, 0.5<x≤4, or >4 denotes for synergistic, additive or antagonistic interaction, respectively)"
same,Interpretation,P. aeruginosa PAO1 [1]; combination with Meropenem,"Synergy (An FIC index of ≤0.5, 0.5<x≤4, or >4 denotes for synergistic, additive or antagonistic interaction, respectively)"
same,Interpretation,P. aeruginosa PAO1 [1]; combination with Minocycline,"Synergy (An FIC index of ≤0.5, 0.5<x≤4, or >4 denotes for synergistic, additive or antagonistic interaction, respectively)"
same,Interpretation,P. aeruginosa PAO1 [1]; combination with Moxifloxacin,"Synergy (An FIC index of ≤0.5, 0.5<x≤4, or >4 denotes for synergistic, additive or antagonistic interaction, respectively)"
same,Interpretation,P. aeruginosa PAO1 [1]; combination with Novobiocin,"Synergy (An FIC index of ≤0.5, 0.5<x≤4, or >4 denotes for synergistic, additive or antagonistic interaction, respectively)"
same,Interpretation,P. aeruginosa PAO1 [1]; combination with Piperacillin,"Synergy (An FIC index of ≤0.5, 0.5<x≤4, or >4 denotes for synergistic, additive or antagonistic interaction, respectively)"
same,Interpretation,P. aeruginosa PAO1 [1]; combination with Pleuromutilin,"Synergy (An FIC index of ≤0.5, 0.5<x≤4, or >4 denotes for synergistic, additive or antagonistic interaction, respectively)"
same,Interpretation,P. aeruginosa PAO1 [1]; combination with Rifampicin,"Synergy (An FIC index of ≤0.5, 0.5<x≤4, or >4 denotes for synergistic, additive or antagonistic interaction, respectively)"
same,Interpretation,P. aeruginosa PAO1 [1]; combination with Streptomycin,"Additive (An FIC index of ≤0.5, 0.5<x≤4, or >4 denotes for synergistic, additive or antagonistic interaction, respectively)"
same,Interpretation,P. aeruginosa PAO1 [1]; combination with Tobramycin,"Additive (An FIC index of ≤0.5, 0.5<x≤4, or >4 denotes for synergistic, additive or antagonistic interaction, respectively)"
same,Interpretation,P. aeruginosa PAO1 [1]; combination with Trimethoprim,"Synergy (An FIC index of ≤0.5, 0.5<x≤4, or >4 denotes for synergistic, additive or antagonistic interaction, respectively)"
same,Interpretation,P. aeruginosa PAO1 [1]; combination with Vancomycin,"Synergy (An FIC index of ≤0.5, 0.5<x≤4, or >4 denotes for synergistic, additive or antagonistic interaction, respectively)"
same,MIC of adjuvant in combo,P. aeruginosa PAO1 [1]; in combination with Aztreonam,(4)
same,MIC of adjuvant in combo,P. aeruginosa PAO1 [1]; in combination with Ceftazidime,(8)
same,MIC of adjuvant in combo,P. aeruginosa PAO1 [1]; in combination with Chloramphenicol,(1)
same,MIC of adjuvant in combo,P. aeruginosa PAO1 [1]; in combination with Ciprofloxacin,(32)
same,MIC of adjuvant in combo,P. aeruginosa PAO1 [1]; in combination with Clindamycin,(0.5)
same,MIC of adjuvant in combo,P. aeruginosa PAO1 [1]; in combination with Doripenem,(8)
same,MIC of adjuvant in combo,P. aeruginosa PAO1 [1]; in combination with Doxycycline,(4)
same,MIC of adjuvant in combo,P. aeruginosa PAO1 [1]; in combination with Fosfomycin,(32)
same,MIC of adjuvant in combo,P. aeruginosa PAO1 [1]; in combination with Gentamicin,(64)
same,MIC of adjuvant in combo,P. aeruginosa PAO1 [1]; in combination with Linezolid,(4)
same,MIC of adjuvant in combo,P. aeruginosa PAO1 [1]; in combination with Meropenem,(16)
same,MIC of adjuvant in combo,P. aeruginosa PAO1 [1]; in combination with Minocycline,(8)
same,MIC of adjuvant in combo,P. aeruginosa PAO1 [1]; in combination with Moxifloxacin,(32)
same,MIC of adjuvant in combo,P. aeruginosa PAO1 [1]; in combination with Novobiocin,(4)
same,MIC of adjuvant in combo,P. aeruginosa PAO1 [1]; in combination with Piperacillin,(8)
same,MIC of adjuvant in combo,P. aeruginosa PAO1 [1]; in combination with Pleuromutilin,(0.5)
same,MIC of adjuvant in combo,P. aeruginosa PAO1 [1]; in combination with Rifampicin,(0.5)
same,MIC of adjuvant in combo,P. aeruginosa PAO1 [1]; in combination with Streptomycin,(0.5)
same,MIC of adjuvant in combo,P. aeruginosa PAO1 [1]; in combination with Tobramycin,(0.5)
same,MIC of adjuvant in combo,P. aeruginosa PAO1 [1]; in combination with Trimethoprim,(4)
same,MIC of adjuvant in combo,P. aeruginosa PAO1 [1]; in combination with Vancomycin,(1)
same,adjuvant activity (potentiation of the panel of 21 antibiotics),P. aeruginosa PAO1 [1]; result in words,potentiated all antibiotics tested except for those belonging to the aminoglycoside family
same,MIC,P. aeruginosa PAO1 [2],128 µg/mL
same,MIC,P. aeruginosa PAO750,4 µg/mL
same,MIC,"P. aeruginosa PAO200; P. aeruginosa PAO200, efflux-deficient strain that lacks the MexAB-OprM pump",2 µg/mL
same,fold difference in MIC against wild-type PAO1 and efflux-deficient PAO200,P. aeruginosa PAO200; PAO1 versus PAO200 (lacks MexAB-OprM),64 fold
CC(=O)N[C@H](C(=O)N[C@H](CO)C(=O)N[C@H]1CCNC(=O)[C@H]([C@@H](C)O)NC(=O)[C@H](CCN)NC(=O)[C@H](CCN)NC(=O)[C@H](CC(C)C)NC(=O)[C@@H](Cc2ccccc2)NC(=O)[C@H](CCN)NC1=O)[C@@H](C)O [SPR741] (Ac-T[dS][Dab][Dab][dF]L[Dab][Dab]T; lactam 3-C),tolerability,[3],well-tolerated
"C[C@H]1[C@H](NC(=O)/C(=N\OC(C)(C)C(=O)O)c2csc(N)n2)C(=O)N1S(=O)(=O)O [Aztreonam, reference compound]",MICDrug,P. aeruginosa PAO1 [1]; antibiotic alone,4
same,MICDrug in combo,P. aeruginosa PAO1 [1]; antibiotic in combination with 1,(0.5)
same,MICDrug in combo,P. aeruginosa PAO1 [1]; antibiotic in combination with 3,(1)
same,MICDrug in combo,P. aeruginosa PAO1 [1]; antibiotic in combination with 4,(0.0625)
same,MICDrug in combo,P. aeruginosa PAO1 [1]; antibiotic in combination with 5,(0.5)
same,MICDrug in combo,P. aeruginosa PAO1 [1]; antibiotic in combination with PMBN,(0.5)
